The values that follow come from ChEMBL document CHEMBL4028815, “Novel phosphonate analogs of sulforaphane: Synthesis, in vitro and in vivo anticancer activity” (Eur J Med Chem, 2017).

Molecules are shown by their SMILES. Calls of active or inactive are those of the source. The rule behind the calls is not given here.

Assay [1] concerns LoVo. The assay can be described thus: Cytotoxicity against human LoVo cells after 72 hrs by sulforhodamine B assay. Type of assay: functional, cell-based.
A short description of assay [2]: Cytotoxicity against human LoVo/DX cells after 72 hrs by sulforhodamine B assay. Type of assay: functional, cell-based. Background: The SRB assay estimates cell density from bound dye.
The test system of a further assay is HL-60. Description: Cytotoxicity against human HL60 cells after 72 hrs by sulforhodamine B assay. The class given is functional, cell-based. The following applies: HL-60, 72 h.
Assay [3] in a line: Resistance index, ratio of IC50 for human HL60/MX2 cells to IC50 for human HL60 cells. Type of assay: functional.
In a further assay the test system is HL60/MX2. The assay can be described thus: Cytotoxicity against human HL60/MX2 cells after 72 hrs by sulforhodamine B assay. Type of assay: functional, cell-based. The following applies: HL60/MX2, 72 h.
Assay [4] deals with LoVo. The assay can be described thus: Potency index, ratio of sulforaphane IC50 to compound IC50 for human LoVo cells. The class given is functional.
Assay [5] concerns LoVo. The assay can be described thus: Potency index, ratio of benzyl isothiocyanate IC50 to compound IC50 for human LoVo cells. Type of assay: functional.
For assay [6], the system named is LoVo. Description: Induction of apoptosis in human LoVo cells assessed as late apoptotic cells at 15 uM after 24 hrs by APC-Annexin-V/propidium iodide staining based flow cytometric method relative to control. The class given is functional. (In general: Flow cytometry measures light scatter and fluorescence of single cells or particles in a stream.)
In assay [7] the test system is LoVo. The assay can be described thus: Induction of apoptosis in human LoVo cells assessed as necrotic cells at 15 uM after 24 hrs by APC-Annexin-V/propidium iodide staining based flow cytometric method (reference value: 10%). Type of assay: functional.
The subject of assay [8] is LoVo. The assay can be described thus: Induction of apoptosis in human LoVo cells assessed as increase in early apoptotic cells at 15 uM after 24 hrs by APC-Annexin-V/propidium iodide staining based flow cytometric method relative to control. Type of assay: functional.
Assay [9] is described as follows: Induction of apoptosis in human LoVo/DX cells assessed as increase in caspase3/7 activity at 15 uM using Ac-DEVD-ACC as substrate pretreated for 24 hrs followed by substrate addition measured for 2 hrs by fluorescence assay relative to control. The class given is functional.
For assay [10], the system named is LoVo. The assay can be described thus: Induction of apoptosis in human LoVo cells assessed as loss of mitochondrial membrane potential at 15 uM after 24 hrs by JC-1 staining based flow cytometric method relative to control. Type of assay: functional.
The subject of assay [11] is LoVo. The assay can be described thus: Induction of apoptosis in human LoVo cells assessed as increase in caspase3/7 activity at 15 uM using Ac-DEVD-ACC as substrate pretreated for 24 hrs followed by substrate addition measured for 2 hrs by fluorescence assay relative to control. Type of assay: functional.
Assay [12] is described as follows: Induction of apoptosis in human LoVo/DX cells assessed as loss of mitochondrial membrane potential at 15 uM after 24 hrs by JC-1 staining based flow cytometric method relative to control. The class given is functional.
Another assay relates to LoVo/DX. The assay can be described thus: Induction of apoptosis in human LoVo/DX cells assessed as late apoptotic cells at 15 uM after 24 hrs by APC-Annexin-V/propidium iodide staining based flow cytometric method relative to control. The class given is functional.

For orientation: IC50 means the concentration at which inhibition is half-maximal. Low values mean greater potency in that assay, high ones weaker potency in that assay.

Regarding `C=CCN=C=S` [ALLYL ISOTHIOCYANATE], the results for the IC50 (with LoVo [1]; in [2]) were 21.2 µM and 29.3 µM, respectively.
Turning to `O=C1c2c(O)ccc(O)c2C(=O)c2c(NCCNCCO)ccc(NCCNCCO)c21` [MITOXANTRONE], the concentration for half-maximal inhibition (IC50) with HL-60 is 0.004 µM; in the assay on HL60/MX2 it was 0.148 µM. Further, the “Ratio IC50” value in assay [3] is reported as 37.
Take `CC(C)(C)COP(=O)(CCCCCN=C=S)OCC(C)(C)C`: the 50% inhibitory concentration (IC50) with LoVo [1] came out at 8.9 µM; in assay [2] it was 10.8 µM.
For `CC(C)(C)COP(=O)(CCCCN=C=S)OCC(C)(C)C` the same measures were 10.2 µM and 10.6 µM.
For `O=P(CCCCN=C=S)(OCc1ccccc1)OCc1ccccc1` the same measures were 3.8 µM and 8.4 µM.
On the same counts, the results for `CCOP(=O)(CCCCCCCCCCN=C=S)OCC` are 10 µM and 13.1 µM.
With `CC(C)(C)COP(=O)(CCCN=C=S)OCC(C)(C)C`, the 50% inhibitory concentration (IC50) with LoVo [1] was determined as 10.2 µM; in [2], 14 µM.
For `COP(=O)(CCCN=C=S)OC` the same measures were 9.3 µM and 9.6 µM.
For `O=P(CCCN=C=S)(Oc1ccccc1)Oc1ccccc1` the same measures were 4.2 µM and 10.2 µM.
For `O=P(CCN=C=S)(OCC(F)(F)F)OCC(F)(F)F` the same measures were 5.5 µM and 8.2 µM.
Regarding `O=P(CCCCN=C=S)(OCC(F)(F)F)OCC(F)(F)F`, the values for the half-maximal inhibitory concentration (IC50) (in the assay with LoVo [1]; in [2]) were 4.9 µM and 5.7 µM, respectively.
As for `O=P(CCN=C=S)(Oc1ccccc1)Oc1ccccc1`, the IC50 in the assay with LoVo [1] is 10.5 µM; in assay [2], 11.4 µM.
On the same counts, the results for `O=P(CCCCCCN=C=S)(OCC(F)(F)F)OCC(F)(F)F` are 4.2 µM and 8.8 µM.
For `O=P(CCCCN=C=S)(Oc1ccccc1)Oc1ccccc1`, the “Ratio IC50” value is 10 with LoVo [4] and 5 in the assay with LoVo [5]. The results for the IC50 (with LoVo [1]; in assay [2]) were 2.3 µM and 3.1 µM, respectively.
On the same counts, the results for `CC(C)OP(=O)(CCCN=C=S)OC(C)C` are 10, 5, 2.6 µM and 3.3 µM.
As for `O=P(CCCCCN=C=S)(Oc1ccccc1)Oc1ccccc1`, the “Ratio IC50” value in the assay with LoVo [4] came out at 10; in the assay on LoVo [5], 5. Besides, the results for the IC50 (with LoVo [1]; in assay [2]) were 2.2 µM and 4.6 µM, respectively.
As to `O=P(CCCCCN=C=S)(OCc1ccccc1)OCc1ccccc1`, the IC50 with LoVo [1] amounted to 3.5 µM; in assay [2] it was 8.5 µM.
On to `CCOP(=O)(CCN=C=S)OCC`, for which the half-inhibitory concentration (IC50) with LoVo [1] was found to be 4.5 µM; in assay [2], 6.1 µM.
For `COP(=O)(CCCCCCN=C=S)OC`, the IC50 in the assay on LoVo [1] came out at 5.4 µM; in assay [2] it was 9.9 µM.
For `CC(C)(C)COP(=O)(CCCCCCN=C=S)OCC(C)(C)C` the same measures were 7.4 µM and 11.2 µM.
Turning to `CC(C)COP(=O)(CCCCCN=C=S)OCC(C)C`, the “Ratio IC50” value came out at 10 with LoVo [4] and 5 in the assay with LoVo [5]. Moreover, the half-inhibitory concentration (IC50) with LoVo [1] worked out at 2.4 µM; in [2], 5.1 µM.
On to `C=CCOP(=O)(CCCCN=C=S)OCC=C`, for which the half-inhibitory concentration (IC50) with LoVo [1] is 5.2 µM; in [2], 3.7 µM.
On the same counts, the results for `O=P(CCCN=C=S)(OCC(F)(F)F)OCC(F)(F)F` are 3.9 µM and 4.7 µM.
On the same counts, the results for `O=P(CCCCCCN=C=S)(OCc1ccccc1)OCc1ccccc1` are 4.6 µM and 9.2 µM.
As for `CC(C)OP(=O)(CCCCCN=C=S)OC(C)C`, the results for the “Ratio IC50” value with LoVo [4] and in the assay with LoVo [5] were 10 and 5, respectively. Further, the IC50 in the assay on LoVo [1] turned out to be 2.6 µM; in assay [2], 7.9 µM.
Take `COP(=O)(CCCCN=C=S)OC`: the concentration for half-maximal inhibition (IC50) with LoVo [1] was found to be 5.4 µM; in [2] it was 6.5 µM.
In the case of `CC(C)OP(=O)(CCCCN=C=S)OC(C)C`, the results for the “Ratio IC50” value in the assay on LoVo [4] and in the assay with LoVo [5] were 10 and 5, respectively. The figures for the IC50 (in the assay with LoVo [1]; in [2]) were 2.5 µM and 5 µM, respectively.
On to `CC(C)[C@@H]1CC[C@@H](C)C[C@H]1OP(=O)(CCCCN=C=S)O[C@@H]1C[C@H](C)CC[C@H]1C(C)C`, for which the IC50 in the assay on LoVo [1] is 5.1 µM; in assay [2] it was 5.8 µM.
In the case of `CC(C)OP(=O)(CCN=C=S)OC(C)C`, the figures for the “Ratio IC50” value in the assay on LoVo [4] and in the assay with LoVo [5] were 10 and 5, respectively. Moreover, the results for the IC50 (in the assay with LoVo [1]; in [2]) were 2.7 µM and 3.6 µM, respectively.
Turning to `CCOP(=O)(CCCCN=C=S)OCC`, the IC50 with LoVo [1] turned out to be 4.6 µM; in [2], 10.2 µM.
For `C#CCOP(=O)(CCCCN=C=S)OCC#C` the same measures were 3.2 µM and 11.3 µM.
On the same counts, the results for `COP(=O)(CCCCCN=C=S)OC` are 5 µM and 9.4 µM.
As to `CC(C)COP(=O)(CCCCN=C=S)OCC(C)C`, the values for the half-maximal inhibitory concentration (IC50) (in the assay with LoVo [1]; in assay [2]) were 3.3 µM and 10.4 µM, respectively.
Consider `COP(=O)(CCN=C=S)OC`, for which the results for the concentration for half-maximal inhibition (IC50) (with LoVo [1]; in assay [2]) were 12.3 µM and 12.4 µM, respectively.
On the same counts, the results for `O=P(CCCCCN=C=S)(OCC(F)(F)F)OCC(F)(F)F` are 5.4 µM and 10.5 µM.
Consider `CCOP(=O)(CCCCCN=C=S)OCC`, for which the results for the “Ratio IC50” value in the assay on LoVo [4] and in the assay on LoVo [5] were 10 and 5, respectively. Further, the half-maximal inhibitory concentration (IC50) with LoVo [1] is 2.8 µM; in assay [2], 3.1 µM.
With `CC[C@H](C)OP(=O)(CCCCN=C=S)O[C@@H](C)CC`, the IC50 is 4.2 µM in the assay on LoVo [1] and 4.5 µM in assay [2].
With `C[S+]([O-])CCCCN=C=S` (stereo not drawn) [SULFORAPHANE], the outcome in the assay on LoVo [6], with LoVo [7] and in the assay on LoVo/DX was Active. In addition, in the assay with LoVo [8], the outcome was inactive. Also, the “fold change (FC)” value in assay [9] was 2.52; in the assay on LoVo [11], 1.41. Also, the figures for the half-maximal inhibitory concentration (IC50) (in the assay with LoVo [1]; in [2]) were 22.9 µM and 18.1 µM, respectively. Moreover, the Activity (in the assay with LoVo [10]; in [12]) was 35% throughout.
For `O=P(CCCCN=C=S)(OCC1CCCO1)OCC1CCCO1` (stereo not drawn), the IC50 came to 5 µM in the assay on LoVo [1] and 7.6 µM in [2].
On the same counts, the results for `CCC(C)OP(=O)(CCCCN=C=S)OC(C)CC` (stereo not drawn) are 4.3 µM and 3.6 µM.
For `CC(C)COP(=O)(CCCN=C=S)OCC(C)C`, the “Ratio IC50” value in the assay on LoVo [4] is on record as 10; with LoVo [5], 5. In addition, the IC50 in the assay with LoVo [1] was determined as 2.4 µM; in [2], 5.6 µM.
On the same counts, the results for `CCOP(=O)(CCCN=C=S)OCC` are 10, 5, 2.9 µM and 3 µM.
